One data set can be described thus: Aqueous solubility. The class given is physicochemical.
The subject of data set [1] is murine open tibial fracture. In words: Murine open tibial fracture model, periosteally stripped (histology, CT scans). The class given is in vivo, C57BI/6 mice. Conditions: for fracture healing: 1-MT, 20 μl in PBS at fracture site.

Read-outs that look alike come from different tables or passages of the source.

1 compound from patent US20120213826A1, “Use of Pro-Inflammatory Compounds for Promoting Bone Formation” (Imperial Innovations Limited, priority 2009, published 2012) can be followed below.

For `Cn1cc(C[C@H](N)C(=O)O)c2ccccc21` [1-MT, 1-methyl tryptophan, reference compound], the results for the aqueous solubility entry in the data set “Aqueous solubility” and in the data set “Aqueous solubility” (listed as 1MT) were “poorly soluBIe in aqueous solutions” and “poor aqueous solubility”, respectively. Besides, the fracture healing result in data set [1] (histology day 14 (FIG. 21)) is on record as “accelerated fracture healing”; in data set [1] (histology day 14 (FIG. 21), listed as 1-methyl tryptophan), “dose dependent acceleration of fracture healing”. Moreover, the “healing of tibial fractures by CT scans” value in data set [1] (28 days post injury, local administration at fracture site (TNFα 50 ng/kg and HMGB1 at time of fracture and 24 hr later) (FIG. 19, 30)) is “trend to improved healing but did not reach statistical significance”. In data set [1] (FIG. 21), the “dose of greatest response (maximal dose tested)” value was 500 µg/mL. The “concentrations giving accelerated fracture healing” value in data set [1] (within the range tested (0.5-5 mg/kg), histology day 14 (FIG. 21)) was no less than 500 µg/mL.
